From patent US20140186468A1, “DIAGNOSING SUBSETS OF TRIPLE-NEGATIVE BREAST CANCER” (priority 2012, published 2014)

Assays:
BOGA cells [1] = assay: Analysis of aberrant chromosomes in metaphase spreads; type: cell-based, human
Description: Cells collected 24 hr post-IR were analyzed for genomic instability by quantitating the percentage of metaphases presenting with chromosomal aberrations, as shown in the images. N, number of independent experiments (50 metaphases analyzed per condition in each experiment). […] (FIG. 5C) Control and BOGA cells were incubated with the cathepsin inhibitor E-64 or vehicle control (C) for 24 hr prior to IR, and the extent of genomic instability assessed as in FIG. 5B. […] Treatment protocol was as in FIG. 5B. […] Treatment performed as in FIG. 5C. […] All values expressed as mean±SEM. N, number of independent experiments; *p value of statistical significance (*p≦0.05).
Cells were treated with the PARPi EB-47 (E8405, Sigma-Aldrich) diluted in water at a concentration of 1.2 μg/mL for 48 hours.

BOGA cells [2] = assay: Relative cell numbers 4 days after IR (recovery from IR); type: cell-based, human; conditions: 4 days after combined treatment with IR
[3] = test system: BOGA cells (BRCA1-deficient MCF7 cells that overcome growth arrest); assay: Western blot of 53BP1 protein levels in BOGA cells after treatment; type: cell-based, human; conditions: vitamin D 10^−7M or E-64 10 μM vs vehicle
Description: (FIG. 2A) MCF7 cells were transduced with shRNAs specific for depletion of 53BP1 (sh 53BP1), BRCA1 (sh BRCA1), or both combined. After selection (puromycin and/or G418), BRCA1, 53BP1, and CTSL levels were monitored by western. […] (FIG. 2C) Control and BOGA cells were transduced with sh CTSL or sh scr and the levels of CTSL, BRCA1, and 53BP1 monitored by western blot. […] (FIG. 2E) Control or BOGA cells were incubated with the broad cathepsin inhibitor E-64 (10 μM) or with vehicle (H2O), and the levels of 53BP1 and CTSL monitored by western blot.
BGS was the vehicle in control media.
Cells were incubated with the broad spectrum cathepsin inhibitor E-64 (E3132, Sigma-Aldrich) diluted in water at a concentration of 10 μM for 24 hours.
Briefly, cells were washed twice with PBS, and incubated in CSK I buffer (10 mM PIPES pH6.8, 100 mM NaCl, 300 mM sucrose, 3 mM MgCl2, 1 mM EGTA, and 0.5% Triton X-100) for 5 minutes. Coverslips were washed 5 times with cold PBS and fixed in modified STF buffer (150 mM 2-Bromo-2-nitro-1,3,-propanediol, 108 mM diazolidinyl urea, 10 mM Na citrate, and 50 nM EDTA pH 5.7) for 30 minutes at room temperature. Coverslips were then washed twice with cold PBS and permeabilized (PB buffer: 100 mM Tris-HCl pH 7.4, 50 mM EDTA pH 8.0, and 0.5% Triton X-100) for 15 minutes at room temperature followed by 2 washes in PBS. […]

[4] = test system: OH mammary carcinoma system; conditions: mouse model; cited from earlier work
[5] = cited from earlier work
MEFs = conditions: cited from earlier work

In the case of `CC(C)C[C@H](NC(=O)[C@H]1O[C@@H]1C(=O)O)C(=O)NCCCCN=C(N)N` [E-64], the “percentage of metaphases with aberrant chromosomes after IR” value (BOGA cells [1]; treated 24 hr prior to 2 Gy, analysed 24 hr post-IR) is reported as “markedly increased genomic instability after IR”, the “recovery from IR (relative cell numbers)” value (BOGA cells [2]) is reported as “significantly reduced their recovery from IR” and the “53BP1 protein levels (western blot)” value [3] is reported as “increased levels of 53BP1 protein”.

For `NC(=S)N/N=C(/c1cccc(O)c1)c1cccc(Br)c1` [KGP94], the “malignant breast tumour growth delay” value [4] is listed as “showed great promise in this mouse model”.

With `Nc1ncnc2c1ncn2[C@@H]1O[C@H](C(=O)N2CCN(CC(=O)Nc3cccc4c3CNC4=O)CC2)[C@@H](O)[C@H]1O` [PARPi] the “genomic instability (metaphases with chromosomal aberrations), PARPi alone” value (BOGA cells [1]; EB-47 1.2 μg/mL for 48 hr) was “does not result in profound genomic instability”.

For `C=C1/C(=C\C=C2/CCC[C@]3(C)[C@@H]([C@H](C)CCCC(C)(C)O)CC[C@@H]23)C[C@@H](O)C[C@@H]1O` [vitamin D, 1α,25-dihydroxyvitamin D3], the “intake in published cases of toxicity involving hypercalcemia” value ([5]; cases with known dose and 25-hydroxy-vitamin D levels) is listed as 40,000 IU per day, the “sustained intake producing overt toxicity” value ([5]; healthy adults, after several months) is listed as “more than 1250 micrograms/day” and the 53BP1 protein stability (MEFs) is listed as “stabilizes 53BP1 protein in MEFs”. The CTSL activity (MEFs) was “inhibits CTSL activity”.
